# pEC50: −log10 of the molar value. Where “and” joins values, the source holds several entries; their conditions need not be identical. Identical values can stand only once. Like-named read-outs stand apart in the source and are kept apart here.
# Legend:
# Cytotoxicity THP-1 (3d) = format: cell-based; conditions: human, THP-1 cells, 25 µM highest concentration tested
# [1] = tested on: C. parvum intracellular DNA synthesis; assay: EdU incorporation DNA replication assay; format: cell-based, Cryptosporidium parvum; conditions: 2 × EC90 = 0.42 µM
# Protocol: The invasion assay, DNA replication assay, asexual to sexual stage conversion, and time-kill curve assays were performed using fluorescence microscopy to enumerate parasites and host cell nuclei. Staining protocols are individually described for each assay. Unless noted otherwise, the details of image acquisition were as follows. An inverted Nikon Eclipse Ti2000 microscope with an automated stage and Perfect Focus was used with NIS-Elements Advanced Research software (Nikon, USA, version 4.30.01) to image the wells. The microscope was programmed to focus on the center of each well and then take a 3 × 3 composite image per well using a 20 × (0.45 NA) objective. Images were exported as .tiff files and parasites and host nuclei counted using a custom macro on ImageJ (National Institutes of Health, version 1.52a). Data were analyzed using Microsoft Excel and GraphPad Prism (version 6.01). Measurement of DNA replication was used as a surrogate marker of Cryptosporidium development within HCT-8 cells. […] Images were acquired by focusing on the parasite focal plane, which is on top of the host cell monolayer, using a ×40 objective (0.7 NA) and EdU and lectin numbers were quantified using ImageJ software.
# Cytotoxicity Jurkat (3d) = format: cell-based; conditions: human, Jurkat cells, 25 µM highest concentration tested
# CYP2C19 = CYP2C19 (Homo sapiens, UniProt P33261); assay: CYP450 inhibition 2C19; format: in vitro ADME
# Chain of CYP2C19 (P33261 whole entry): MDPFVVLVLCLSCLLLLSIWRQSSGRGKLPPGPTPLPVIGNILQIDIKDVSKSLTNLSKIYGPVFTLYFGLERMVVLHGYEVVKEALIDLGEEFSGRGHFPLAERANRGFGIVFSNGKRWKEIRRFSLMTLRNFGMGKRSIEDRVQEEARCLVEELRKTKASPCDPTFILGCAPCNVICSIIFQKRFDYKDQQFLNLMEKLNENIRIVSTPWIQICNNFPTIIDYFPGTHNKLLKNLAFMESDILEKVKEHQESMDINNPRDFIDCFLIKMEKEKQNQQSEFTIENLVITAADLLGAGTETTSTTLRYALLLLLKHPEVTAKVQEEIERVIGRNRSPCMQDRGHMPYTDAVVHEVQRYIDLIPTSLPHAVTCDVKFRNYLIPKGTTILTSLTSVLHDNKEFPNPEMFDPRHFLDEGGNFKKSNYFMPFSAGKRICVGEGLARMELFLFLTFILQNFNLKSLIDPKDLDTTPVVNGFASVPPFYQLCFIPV
# [2] = Plasma Protein Binding (bovine); format: in vitro ADME; conditions: read-out: Plasma Protein Binding (PPB) (converted)
# C. hominis TU502 isolate = assay: C. hominis growth inhibition in HCT-8 cells; format: cell-based, Cryptosporidium hominis; conditions: single replicates, unit inferred, read-out: In vitro efficacy (Fig 2b, EC50)
# Protocol: Follow-up assays were performed at the University of Vermont (UVM) and Calibr at Scripps Research by infection of the colonic adenocarcinoma cell line HCT-8 (ATCC CCL-244) and staining with the Vicia villosa lectin and DAPI[17],[32]. The FBS concentrations and parasites used for these assays were as indicated; parasite isolates and sources included C. parvum Iowa isolate oocysts purchased from Bunch Grass Farm (Deary, ID), C. parvum Iowa isolate oocysts purchased from the Sterling Laboratory (University of Arizona, Tucson, AZ), wild type C. parvum oocysts provided by Dr. Jenni Zambriski (Virginia Tech, Blacksburg, VA), and the C. hominis TU502 isolate purchased from Dr. Saul Tzipori (Tufts University Cummings School of Veterinary Medicine, North Grafton, MA).
# in vivo = conditions: male, Sprague-Dawley, rat, po
# Protocol: A repeated oral dose toxicity and separate toxicokinetics (TK) study were performed in male rats by WuXi AppTec Company (Suzhou, China). […] Animals were individually housed in solid bottom plastic cages with bedding in compliance with the US Animal Welfare Act. All rat studies were performed using ∼8-week-old Sprague-Dawley male rats (Rattus novegicus)/Crl: CD[SD] […] Cage side clinical observations of condition and behavior (i.e., gait, stool, activity level, atonia, coat soiling and grooming, skin turgor, posture, priapism, piloerection) were performed twice daily during the dosing phase, and weights and food consumption were measured daily. At termination, all study animals were evaluated for erythrocyte count, absolute reticulocyte count, alkaline phosphatase, and triglycerides by fasting the animals overnight and obtaining blood from the abdominal aorta at necropsy as a terminal procedure under deep anesthesia (pentobarbital). A complete necropsy and histopathologic studies (hematoxylin and eosin staining) of large intestine, small intestine, stomach, and any gross lesions were performed on all animals on day 7 of dosing. […] Serum was collected from vehicle-control animals at 1 h and 4 h after dosing on days 1 and 7. […] Following completion of blood collection, TK animals were euthanized by CO2 inhalation and exsanguination without necropsy.
# [3] = tested on: C. parvum (Bunch Grass Farms Iowa isolate); assay: NOD scid gamma (NSG) mouse model of established C. parvum infection; format: in vivo, NOD scid gamma mice; conditions: for reduction of parasite shedding: after 4 days of treatment
# Protocol: NOD scid gamma mice (NOD.Cg-Prkdcscid Il2rgtm1Wjl/SzJ)[55] (NSG) were used to model chronic Cryptosporidium infection. All NSG mouse studies were performed in compliance with animal care guidelines and with approval by the University of Vermont Institutional Animal Care and Use Committee. NSG mice with normal flora were purchased from The Jackson Laboratory (Bar Harbor, ME) and were housed for at least a week for acclimatization. […] Fecal parasite shedding was measured using a quantitative PCR (qPCR) assay, and the primers named above as Cp18s forward and Cp18s reverse.
# [4] = tested on: CYP450 (2B6, 1A2, 2C9, 2C19, 2D6, 3A4); assay: CYP450 inhibition, 6 isoforms; format: in vitro ADME; conditions: @ 10 µM
# [5] = tested on: C. parvum DMC1 positive parasites; assay: Asexual-to-sexual stage conversion assay (DMC1 expression); format: cell-based, Cryptosporidium parvum
# Protocol: The invasion assay, DNA replication assay, asexual to sexual stage conversion, and time-kill curve assays were performed using fluorescence microscopy to enumerate parasites and host cell nuclei. Staining protocols are individually described for each assay. Unless noted otherwise, the details of image acquisition were as follows. An inverted Nikon Eclipse Ti2000 microscope with an automated stage and Perfect Focus was used with NIS-Elements Advanced Research software (Nikon, USA, version 4.30.01) to image the wells. The microscope was programmed to focus on the center of each well and then take a 3 × 3 composite image per well using a 20 × (0.45 NA) objective. Images were exported as .tiff files and parasites and host nuclei counted using a custom macro on ImageJ (National Institutes of Health, version 1.52a). Data were analyzed using Microsoft Excel and GraphPad Prism (version 6.01). […] Amphotericin B (Sigma, catalog# A2942) was added to the culture media at 0.1 to 0.5 µg per mL for the DMC1 dose response assays.
# [6] = Liver microsome Clint (mouse); format: in vitro ADME; conditions: liver microsomes
# [7] = Plasma Protein Binding (mouse); format: in vitro ADME; conditions: read-out: Plasma Protein Binding (PPB) (converted)
compound,measurement,setting,value
CC1(C)OB(O)c2cc(NC(=O)c3ccc(-n4cccn4)cc3Cl)ccc21 [AN7973],IC50 at 3 d,Cytotoxicity THP-1 (3d),> 25 µM
same,effect on intracellular DNA synthesis (EdU incorporation),[1],arrested new DNA synthesis
same,IC50 at 3 d,Cytotoxicity Jurkat (3d),> 25 µM
same,inhibition at 10 µM,CYP2C19,27%
same,fraction unbound,[2],0.04
same,pEC50,"C. hominis TU502 isolate; C. hominis (Tu502, 2%FBS)",6.24
same,pEC50,"C. hominis TU502 isolate; Cryptosporidium hominis, HCT-8, C. hominis (Tu502, 2%FBS)",6.12
same,NOAEL at 7 days,in vivo,> 80 mg/kg/day
same,reduction of parasite shedding,[3]; 10 mg per kg once daily oral gavage,> 90%
same,"parasite fecal shedding (qPCR), individual mice","[3]; 10 mg/kg, D7 (before treatment)",58.681 oocysts/mg feces and 43.169 oocysts/mg feces and 158.993 oocysts/mg feces and 120.558 oocysts/mg feces
same,"parasite fecal shedding (qPCR), individual mice","[3]; 10 mg/kg, D11",7.142 oocysts/mg feces and 1.830 oocysts/mg feces and 16.882 oocysts/mg feces and 7.589 oocysts/mg feces
same,reduction of parasite shedding,[3]; 25 mg per kg once daily oral gavage,> 99%
same,"parasite fecal shedding (qPCR), individual mice","[3]; 25 mg/kg, D7 (before treatment)",379.464 oocysts/mg feces and 632.650 oocysts/mg feces and 267.595 oocysts/mg feces and 299.397 oocysts/mg feces
same,"parasite fecal shedding (qPCR), individual mice","[3]; 25 mg/kg, D11, ND = not detected, lower limit of detection 0.1",0.825 oocysts/mg feces
same,adverse effects in NSG mice,[3]; treated NSG mice gained weight normally,no adverse effects were observed
same,"CYP450 inhibition (in 6 isoforms – 2B6, 1A2, 2C9, 2C19, 2D6, 3A4)",[4],Negative
same,pEC50,"[5]; Cryptosporidium parvum, BGF Iowa isolate, HCT-8, 10% FBS, DMC1, interval in parentheses, read-out: EC50 asexual-to-sexual conversion (48–72 h)",6.32
same,"% inhibition, 48 - 72 h DMC1 (asexual to sexual conversion)",[5]; log [AN7973] (M) 0.10,95.75%
same,"% inhibition, 48 - 72 h DMC1 (asexual to sexual conversion)",[5]; log [AN7973] (M) 0.28,95.64% and 78.65%
same,"% inhibition, 48 - 72 h DMC1 (asexual to sexual conversion)",[5]; log [AN7973] (M) 0.40,95.48%
same,"% inhibition, 48 - 72 h DMC1 (asexual to sexual conversion)",[5]; log [AN7973] (M) -0.20,85.62% and 65.23% and 46.69%
same,"% inhibition, 48 - 72 h DMC1 (asexual to sexual conversion)",[5]; log [AN7973] (M) -0.68,-48.74% and -54.94% and -50.77%
same,"% inhibition, 48 - 72 h DMC1 (asexual to sexual conversion)",[5]; log [AN7973] (M) -0.93,-98.53%
same,"% inhibition, 48 - 72 h DMC1 (asexual to sexual conversion)",[5]; log [AN7973] (M) -1.23,-40.27%
same,"% inhibition, 48 - 72 h DMC1 (asexual to sexual conversion)",[5]; log [AN7973] (M) -1.53,-58.48%
same,"% inhibition, 48 - 72 h DMC1 (asexual to sexual conversion)",[5]; log [AN7973] (M) -2.01,-35.29%
same,"% inhibition, 48 - 72 h DMC1 (asexual to sexual conversion)",[5]; log [AN7973] (M) -2.48,-28.64%
same,microsomal CLint,[6],< 1 µL/min/mg
same,fraction unbound,[7],0.011
